Source: ChEMBL document CHEMBL4651402, “Screening of ~5500 FDA-approved drugs and clinical candidates for anti-SARS-CoV-2 activity” (2021)

System: SARS-CoV-2
Test: microbe, parasite or virus in culture
Settings: Severe acute respiratory syndrome coronavirus 2, Vero C1008, 48 h

SMILES	IC50 [µM]	IC50 (read-out: pIC50 (converted)) [µM]
CCCCC(=O)O[C@]1(C(=O)CO)C(C)CC2C3CCC4=CC(=O)C=CC4(C)[C@@]3(F)C(O)CC21C (some centres not stated)	> 20	> 20
NC(Cc1ccc(O)cc1)C(=O)O (configuration not stated)	> 20	> 20
CN(C)CCCCCCN(C)C	> 20	> 20
CCN(CC)CCOC(=O)C1(c2ccc([N+](=O)[O-])cc2)CCCC1	> 20	> 20
C[C@H](CCC(=O)O)[C@H]1CC[C@H]2[C@@H]3[C@@H](O)C[C@@H]4C[C@H](O)CC[C@]4(C)[C@H]3C[C@H](O)[C@]12C	> 20	> 20
O=C(/C=C/c1ccc(O)cc1)c1ccccc1O	> 20	> 20
COc1ccc(-n2nc3c4c([nH]cc-3c2=O)CCCCC4)cc1	> 20	> 20
CC(=O)OC1CC2CCC1(C)C2(C)C (configuration not stated)	> 20	> 20
NC(CSCC(=O)O)C(=O)O (configuration not stated)	> 20	> 20
CC(C)C(C)/C=C/C(C)C1CCC2C3=CC=C4CC(O)CCC4(C)C3CCC21C (configuration not stated)	> 20	> 20
Cc1ccccn1	> 20	> 20
COc1cc2c3cc1Oc1cc(ccc1O)CC1c4c(cc(OC)c(O)c4Oc4ccc(cc4)CC3N(C)CC2)CC[N+]1(C)C (configuration not stated)	> 20	> 20
O=C(Nc1cccnn1)N1CCC(=Cc2cccc(Oc3ccc(C(F)(F)F)cn3)c2)CC1	> 20	> 20
C1CCN2CC3CC(CN4CCCCC34)C2C1 (configuration not stated)	> 20	> 20
CC(=O)N[C@H]1[C@H](O[C@@H]2c3ccc(c(Cl)c3)Oc3cc4cc(c3O[C@@H]3O[C@H](CO)[C@@H](O)[C@H](O)[C@H]3NC(=O)CCCCCCC(C)C)Oc3ccc(cc3Cl)C[C@H]3NC(=O)[C@@H](N)c5ccc(O)c(c5)Oc5cc(O)cc(c5)[C@H](NC3=O)C(=O)N[C@H]4C(=O)N[C@H]3C(=O)N[C@@H]2C(=O)N[C@@H](C(=O)O)c2cc(O)cc(O[C@H]4O[C@H](CO)[C@@H](O)[C@H](O)[C@@H]4O)c2-c2cc3ccc2O)O[C@H](CO)[C@@H](O)[C@@H]1O	> 20	> 20
CCC[C@]1(c2cccc(O)c2)CCN(C)C[C@@H]1C	> 20	> 20
C[C@@H](N)Cc1c[nH]cn1	> 20	> 20
CC1C2Cc3ccc(O)cc3C1(C)CCN2CC1CC1 (configuration not stated)	> 20	> 20
COc1cc2ncnc(Nc3cccc(Br)c3)c2cc1OC	> 20	> 20
CC12CCC3C(CC=C4CC(O)CCC43C)C1CCC2=O (configuration not stated)	> 20	> 20
O=C(O)C=Cc1ccc(O)c(O)c1	> 20	> 20
CN1C2CCC1CC(OC(c1ccccc1)c1ccccc1N)C2 (configuration not stated)	> 20	> 20
Cc1cnc(C(=O)N[C@H]2CCCCC/C=C\[C@@H]3C[C@@]3(C(=O)NS(=O)(=O)C3CC3)NC(=O)[C@@H]3C[C@@H](Oc4nc5ccccc5c5ccccc45)CN3C2=O)cn1	> 20	> 20
COc1ccc2c3c1O[C@H]1[C@@H](O)CCC4[C@@H](C2)N(C)CC[C@@]341 (some centres not stated)	> 20	> 20
O=C(Cc1cccc(OC(F)(F)F)c1)Nc1ccc(CCCCc2nnc(NC(=O)Cc3ccccn3)s2)nn1	> 20	> 20
CC(C)CC(NC(=O)C(Cc1ccccc1)NC(=O)CNC(=O)C(C)NC(=O)C(N)Cc1ccc(O)cc1)C(=O)O (configuration not stated)	> 20	> 20

SMILES	IC50 [µM]	IC50 (read-out: pIC50 (converted)) [µM]
CC12CCC3C(CCC4(O)CC(O)CCC34C=O)C1(O)CCC2C1=CC(=O)OC1 (configuration not stated)	> 20	> 20
CS(=O)(=O)CCC#N	> 20	> 20
NCCCCCCNS(=O)(=O)c1cccc2c(Cl)cccc12	> 20	> 20
Nc1ncnc2c1ncn2C1CC(O)C(CO)O1 (configuration not stated)	> 20	> 20
Cc1cn(C2C=CC(CO)O2)c(=O)[nH]c1=O (configuration not stated)	> 20	> 20
N=C(N)NCCC[C@H](NC(=O)c1ccc2ccccc2c1O)C(=O)N1CCC[C@H]1C(N)=O	> 20	> 20
N/C=C1\Cc2ccccc2C1=O	> 20	> 20
CC12CCC3c4ccc(OC(=O)c5ccccc5)cc4CCC3C1CCC2O (configuration not stated)	> 20	> 20
O=C(CCc1ccc(O)cc1)c1c(O)cc(O)cc1OC1OC(CO)C(O)C(O)C1O (configuration not stated)	> 20	> 20
C=C1C(=O)O[C@@H]2[C@H]3O[C@]3(C)CC/C=C(\C)CC[C@@H]12	> 20	> 20
CC(=O)O[C@H]1C[C@H](O[C@H]2[C@@H](O)C[C@H](O[C@H]3[C@@H](O)C[C@H](OC4CCC5(C)C(CCC6C5CCC5(C)C(C7=CC(=O)OC7)CCC65O)C4)O[C@@H]3C)O[C@@H]2C)O[C@H](C)[C@H]1O[C@@H]1O[C@H](CO)[C@@H](O)[C@H](O)[C@H]1O (some centres not stated)	> 20	> 20
CC/C(=C(\CC)c1ccc(OP(=O)(O)O)cc1)c1ccc(OP(=O)(O)O)cc1	> 20	> 20
CC1(C)OC2CC3C4CCC5=CC(=O)C=CC5(C)C4C(O)CC3(C)[C@]2(C(=O)CO)O1 (some centres not stated)	> 20	> 20
C/C=C/CC(C)C(O)C1C(=O)NC(CC)C(=O)N(C)CC(=O)N(C)C(C(C)CC)C(=O)NC(C(C)C)C(=O)N(C)C(CC(C)C)C(=O)NC(C)C(=O)NC(C)C(=O)N(C)C(CC(C)C)C(=O)N(C)C(CC(C)C)C(=O)N(C)C(C(C)C)C(=O)N1C (configuration not stated)	> 20	> 20
Cc1ccc(S(=O)(=O)NC(=O)NC2C3CCC(C)(C2O)C3(C)C)cc1 (configuration not stated)	> 20	> 20
CCOC(=O)c1ncc2[nH]c3cccc(OCc4ccccc4)c3c2c1COC	> 20	> 20
CC(=O)O[C@]1(C(C)=O)CCC2C3CCC4=CC(=O)CCC4C3C(C)CC21C (some centres not stated)	> 20	> 20
CO[C@H]1C(O)C[C@H](O[C@H]2C(O)C[C@H](O[C@H]3C(O)C[C@H](OC4CC[C@@]5(C)C(CCC6C5CC(O)[C@]5(C)[C@@H](C7=CC(=O)OC7)CCC65O)C4)OC3C)OC2C)OC1C (some centres not stated)	> 20	> 20
C#C[C@@]1(O)CCC2C3CCc4cc(OC)ccc4C3CCC21C (some centres not stated)	> 20	> 20
C[N+](C)(C)CCOP(=O)([O-])OC[C@@H](O)CO	> 20	> 20
CC1CC2(C)C3CCC4(C)C(O)CCC4C3CC[C@H]2CC1=O (some centres not stated)	> 20	> 20
CC1CC2=CC(=O)CCC2C2CCC3(C)C(CCC3(C)O)C12 (configuration not stated)	> 20	> 20
CN(C)CCOc1ccc(/C(=C(\CCCl)c2ccccc2)c2ccccc2)cc1	> 20	> 20
CCN(CC)CC(C)(C)COC(=O)c1ccc(N)cc1	> 20	> 20
CC12C=CC(=O)C=C1CCC1C2C(O)CC2(C)C1CCC2(O)C(=O)COC(=O)CCCc1ccc(N(CCCl)CCCl)cc1 (configuration not stated)	> 20	> 20
CCN(CC)CC(C)OC(=O)[C@H]1CCCC[C@]1(O)C1CCCCC1 (some centres not stated)	> 20	> 20

SMILES	IC50 [µM]	IC50 (read-out: pIC50 (converted)) [µM]
CC12CCC(O)CC1=CCC1C2CCC2(C)C(O)CCC12 (configuration not stated)	> 20	> 20
[2H]C([2H])([2H])OCCCN1CCC(NC(=O)c2cc(Cl)c(N)c3c2OCC3)CC1	> 20	> 20
CC12C=CC(=O)C=C1CCC1C3CC4Cc5ccccc5CC4(C(=O)CO)C3(C)CC(O)C12F (configuration not stated)	> 20	> 20
CC12CCC3C(CC[C@H]4Cc5n[nH]cc5C[C@]34C)C1CC[C@]2(C)O (some centres not stated)	> 20	> 20
CN1CC[C@@]23CCCC[C@@H]2C1Cc1ccc(O)cc13	> 20	> 20
CC(C)CCCC(C)C1CCC2C3CC[C@H]4CC(O)CCC4(C)C3CCC12C (some centres not stated)	> 20	> 20
COc1ccc2c3c1OC1C(O)CCC4C(C2)N(C)CCC341 (configuration not stated)	> 20	> 20
CCC1=C[C@@H]2CN3CCc4c([nH]c5ccccc45)[C@@](C(=O)OC)(C2)[C@H]13	> 20	> 20
COc1ccc(C(=O)OC2CCC3(C)C4CCC5[C@]6(O)[C@@H](O)C(O)[C@H]7C(CN8CC(C)CC[C@H]8[C@@]7(C)O)[C@@H]6C[C@@]53O[C@]24O)cc1OC (some centres not stated)	> 20	> 20
N#Cc1cccc([C@H]2C=C(C(F)(F)F)NC3=C2C(=O)CCC3)c1	> 20	> 20
CCOC(=O)c1ccc(OCCC2CCN(c3ccc(C)nn3)CC2)cc1	> 20	> 20
CCC(=O)N(c1ccc(Cl)c(Cl)c1)[C@@H]1CCC[C@H]1N(C)C	> 20	> 20
CCC(CO)NC(=O)[C@@H]1C=C2c3cccc4[nH]cc(c34)CC2N(C)C1 (some centres not stated)	> 20	> 20
O/N=C1/CCCC/C1=N\O	> 20	> 20
CC1(C)CCC2(C)CCC3(C)C(=CCC4C5(C)CCC(O)C(C)(C)[C@@H]5CCC43C)C2C1 (some centres not stated)	> 20	> 20
CC/C=C/C/C=C/C/C=C/C/C=C/C/C=C/CCCC(=O)O	> 20	> 20
CC(=O)Nc1ccc(S(=O)(=O)Nc2ccc([N+](=O)[O-])cc2)cc1	> 20	> 20
COc1ccccc1N1CCN(CCn2c(=O)[nH]c3ccccc3c2=O)CC1	> 20	> 20
Cc1cccc(N2CCN(CCCOc3ccc4ccc(O)nc4c3)CC2)c1C	> 20	> 20
Nc1nc(N)c2nc(-c3ccccc3)c(N)nc2n1	> 20	> 20
CC(O)(C(=O)Nc1ccc(C(=O)c2ccccc2)cc1)C(F)(F)F (configuration not stated)	> 20	> 20
CC12CCC3C(CCC4CC(=O)CCC43C)C1CCC2=O (configuration not stated)	> 20	> 20
CCOCN1C2=C(C(=O)Nc3ccccc3F)C(=O)CCN2c2ccc(F)cc21	> 20	> 20
CCN1C(=S)N(c2ccc(N3CCN(c4ccc(O)cc4)CC3)cc2)C(=O)C1(C)C	> 20	> 20
